Experimental data published in patent publication US9387213B2, “Small molecules inhibiting oncoprotein Myc” (Health Research, Inc., priority 2012, dated 2016).

Legend:
in vitro = settings: microsomes, pH 7.4; for Percent Remaining 0 min: 0 h; for Percent Remaining 0 min / Percent Remaining 10 min / Percent Remaining 20 min / Percent Remaining 30 min / Percent Remaining 60 min: 1 μM; for Percent Remaining 30 min: 0.5 h; for Percent Remaining 60 min: 1 h
Description: Additionally, several of the N77A7 analogs were subjected to the test for the metabolic stability in human and mouse liver microsomes. Briefly, 1 μM of test compound was incubated with microsomal protein (human liver microsomes: 0.5 mg/mL; mouse liver microsomes 0.5 mg/mL) and buffer (100 mM potassium phosphate, pH 7.4, 5 mM magnesium chloride). The positive control was 5 μM testosterone. The reaction was equilibrated at 37 C in a shaking water bath for 3 to 5 minutes. After equilibration, an aliquot was removed and combined with 50/50 acetonitrile/water containing 0.1% formic acid and internal standard to terminate the reaction. 1 mM NADPH was immediately added and the tube was returned to the water bath. Five sample time points were taken (0, 10, 20, 30, and 60 minutes). Aliquots were removed and combined with 50/50 acetonitrile/water containing 0.1% formic acid and internal standard to terminate the reaction. The samples were mixed for 10 minutes and centrifuged. The supernatant from each sample was diluted (if necessary) and then transferred to vials for analysis by LC-MS/MS for the test compound and internal standard without calibration standards. The percent remaining at each time point was determined by the test compound's peak area response ratio versus the 0 minute sample.

[1] = tested on: HO15.19 cells reconstituted with exogenous C-MYC; test: Inhibition of C-MYC-dependent proliferation, cell cycle distribution by FACS; format: cell-based, rat; settings: 3 μM
Description: In parallel, […] was evaluated for the ability to inhibit C-MYC-dependent proliferation in HO15.19 cells reconstituted with exogenous C-MYC. HO15.19 cells are the only cell line that is capable of continuous proliferation in the absence of any MYC protein expression, a feature that makes this line a reference in the field.

SK-Mel-103 xenografts = test: SK-Mel-103 xenograft efficacy study CBL2.5-01-Ms-2, N77A7 in Captisol; format: in vivo, athymic nude mice
Description: FIG. 9 illustrates the effect of N77A7 on survival of SK-Mel-103 tumor-bearing mice. […] When at least one tumor on the majority of mice reached ˜50 mm^3, mice were randomly divided into treatment groups. Starting on Day 1 of treatment, mice were treated daily by ip injection of either 50 mg/kg N77A7 or the equivalent amount of Captisol vehicle. Mice were followed until tumors reached 1000 mm^3 or tumors ulcerated or 28 days of treatment, whichever came first. The proportion of surviving mice is depicted in the graph. The survival of N77A7 and vehicle control-treated mice was compared using the Log Rank test. p-value<0.05 indicates significance.
FIG. 10 illustrates the effect of Captisol and N77A7 on mouse weight. (A) Mean change in body weight as determined by calculating the % starting weight, which is the weight of a mouse on Day X divided by the weight of the same mouse on Day 1 and multiplied by 100. […] (C)-(D) Changes in mouse weight for individual mice in each treatment group calculated as described in (A).
FIG. 11 illustrates the effect of 50 mg/kg N77A7 on tumor growth. (A) Athymic nude mice were inoculated with 1×10^6 SK-Mel-103 tumor cells in each rear flank. When at least one tumor on a mouse was ˜50 mg for the majority of mice, treatment commenced. Mice were treated once daily ip with 50 mg/kg N77A7 or an equivalent amount of vehicle control (i.e., Captisol). Tumors were measured by digital caliper on Day 1 and then twice per week thereafter. Tumor measurements were made blind to the treatment each mouse received. Data is presented as the mean tumor volume on each measurement day. Comparison of tumor volume between treatment groups was made using unpaired t-tests. P value <0.05 is significant. (B) Same as (A) except data is presented as mean fold tumor growth, which was calculated by dividing the mean tumor volume on Day X by that of the same tumor on Day 1.
FIG. 12 illustrates the effect N77A7 on tumor doubling time and the time to reach 1000 mm^3 Growth curves for each tumor within each treatment group were plotted (tumor volume vs days from start of treatment). Regression analysis using the exponential trendline in Excel was used to generate an equation for each curve. From the equation, the tumor doubling time (A) and the time to reach the experimental endpoint of 1000 mm^3 was calculated. Error bars represent the standard error of the mean and p values were obtained using unpaired, two-sided t-tests.
Animal study protocol CBL2.5-01-Ms-2. N77A7 formulated in Captisol was prepared. Both N77A7 and Captisol vehicle were prepared weekly according to the needs of the study. SK-Mel-103 melanoma cells (1×10^6 cells/inoculation were inoculated into each rear flank of 20 athymic nude (7.5 week old males) on Sep. 11, 2009. Prior to commencement of treatment, mice were randomly assigned to treatment groups with 2 of 4 mice per cage assigned to the Captisol vehicle control group and the other 2 mice to the 50 mg/kg N77A7 group. When at least one tumor per mouse for the majority of mice reached ˜50 mm^3 in tumor volume, treatment commenced. The first day of treatment (Day 1) was Sep. 21, 2009. Administration of N77A7 and vehicle control was performed daily by ip administration of 2.5 mg/ml solution of N77A7 or equivalent amount of vehicle control at 500 μl/25 g mouse body weight. Mouse body weight measurements were performed prior to commencement of treatment and Mondays-Wednesdays-Fridays thereafter. Administration volumes were adjusted during the course of the study based on the latest weight measurements. Treatments were administered. Tumor measurements were performed without prior knowledge of which treatment group each mouse belonged (i.e., blinded to treatment groups). When at least one tumor of a mouse reached 1000 mm^3 or tumor ulceration was evident, mice were euthanized according to the approved IACUC protocol (CBL 1096M). The experiment was completed on Day 18 (Oct. 8, 2009). […]

[2] = 50 mg/kg daily ip in Captisol, necropsy of several mice

With `CCN(CC)c1ccc(/C=N/NC(=O)Cn2nnc(-c3ccccc3)n2)c(O)c1` [Compound N77A7] the “Percent Remaining 0 min” value (in vitro; human) was 100%, the “Percent Remaining 10 min” value (in vitro; human) was 87% and the “Percent Remaining 20 min” value (in vitro; human) was 30%. For the same compound, the “Percent Remaining 30 min” value (in vitro; human) was 1− Percent, the “Percent Remaining 60 min” value (in vitro; human) was less than 1.0% and the half-life at 1 µM (in vitro; human) was 13.1 min. For the same compound, the microsomal CLint at 1 μM (in vitro; human) was 110 µL/min/mg, the “Percent Remaining 0 min” value (in vitro; mouse) was 100% and the “Percent Remaining 10 min” value (in vitro; mouse) was 25%. The “Percent Remaining 20 min” value (in vitro; mouse) was 8.9%, the “Percent Remaining 30 min” value (in vitro; mouse) was 4.5% and the “Percent Remaining 60 min” value (in vitro; mouse) was less than 1.0%. The half-life at 1 µM (in vitro; mouse) was 5.2 min, the microsomal CLint at 1 μM (in vitro; mouse) was 270 µL/min/mg and the “HO15.19-C-MYC G2” value ([1]; percent of cells in G2 phase) was 15.39%. The “HO15.19-C-MYC S” value ([1]; percent of cells in S phase) was 34.88%, the “treated mice remaining in the study (survival)” value (SK-Mel-103 xenografts; 50 mg/kg daily ip in Captisol, after 14 days of treatment, all Captisol-treated mice euthanized, logrank P=0.0083) was 5 of the 10 and the “compound precipitation at necropsy” value (SK-Mel-103 xenografts; [2]) was “no signs of compound precipitation within the abdominal cavity”. The peritonitis at necropsy (SK-Mel-103 xenografts; [2]) was “no signs of peritonitis”, the “maximum tumor growth inhibition” value (SK-Mel-103 xenografts; 50 mg/kg daily ip in Captisol, versus Captisol vehicle) was roughly 45% and the “effect on mouse weight” value (SK-Mel-103 xenografts; 50 mg/kg daily ip, 14 consecutive days of treatment) was “did not cause any weight loss”. The “growth delay in reaching the study endpoint (1000 mm3)” value (SK-Mel-103 xenografts; 50 mg/kg daily ip, from regression of growth curves, p=0.0004) was 5 days, the “increase of doubling time for tumor growth” value (SK-Mel-103 xenografts; 50 mg/kg daily ip, from regression of growth curves, p=0.0157) was 1 days and the “starting tumors left in the study by Day 14” value (SK-Mel-103 xenografts; 50 mg/kg daily ip, control <50% (8/18)) was 80%.
